Experiment: Metabolic stability in liver microsomes
Assay type: in vitro ADME
Conditions: read-out: t1/2 liver microsomes

## CN(C(=O)Oc1ccc(C(F)(F)F)cc1C(F)(F)F)c1ccc(F)cc1 [MC160385]
  half-life: 6.2 min

From article PMC10997755, “Discovery of a small-molecule inhibitor that traps Polθ on DNA and synergizes with PARP inhibitors” (Nature Communications, 2024)
